4 compounds from patent US8703799B2, “Non-competitive NMDA receptor antagonists” (priority 2006, dated 2014) can be followed below.

One data set relates to MES-induced seizures. Nature of the data set: Maximal electroshock (MES) test for anti-convulsive activity in mice. The class given is in vivo. Further details: key: (+) means MES test protection occurred at 100 mg/kg delivered i.p. in mice; (−) means that no activity was observed. The following applies: i.p., 100 mg/kg. The procedure:
The maximal electroshock (MES) test was used to initially screen compounds for anti-convulsive activity in mice.
In the MES test, 50 mA of […] alternating current was delivered to 19-25 g mice for 2 s by a corneal electrode which had been primed with an electrolyte solution containing an anesthetic agent (0.5% tetracaine HCl). Mice were tested at various intervals following doses of 30, 100 or 300 mg/kg of test compound given by i.p. injection in 0.01 ml/g of the aqueous carrier. Animals are considered protected from MES-induced seizures upon abolition of hindlimb tonic extensor component of the seizure (Swinyard et al. 1989; White et al. 1995a; White et al. 1995b).
(§1) For activity, (+) means MES test protection occurred at 100 mg/kg delivered i.p. in mice and (−) means that no activity was observed. For toxicity, (+++) means some animals died at 100 mg/kg and all animals died at 300 mg/kg; (++) means that some toxicity observed at 100 mg/kg and all animals died at 300 mg/kg; and (−) means no toxicity observed at 100 mg/kg and some observed at 300 mg/kg but no animals died at 300 mg/kg.

The subject of the next data set is mice. Kind of data set: Acute toxicity (rotorod minimal motor impairment, overt signs, death) in mice. Also noted: key: (+++) means some animals died at 100 mg/kg and all animals died at 300 mg/kg; (++) means that some toxicity observed at 100 mg/kg and all animals died at 300 mg/kg; (−) means no toxicity observed at 100 mg/kg and some observed at 300 mg/kg but no animals died at 300 mg/kg. The class given is in vivo. The note with it: i.p., 100 and 300 mg/kg. The procedure: Acute toxicity was assessed by monitoring animals for overt signs of impaired neurological or muscular function. The rotorod test measures minimal motor impairment (MMI) by placing mice on a rod rotated a 6 rpm. A compound is considered toxic if the mice fall off the rod three times during a 1-min period. Additionally, mice were observed and noted for circular or zigzag gaits, abnormal body posture and spread of the legs, tremors, hyperactivity, lack of exploratory behavior, somnolence, stupor, catalepsy, loss of placing response and change in muscle tone.
as §1

Data set [1] concerns electrically-induced convulsions. Kind of data set: Anti-convulsive ED50 in rats, oral (electrically-induced convulsions). It counts as in vivo. The following applies: delivered orally, amelioration of electrically-induced convulsions. Here is the method:
Suitable dosages for the compounds and methods disclosed herein range from about 0.05, 0.1, 0.2 or 0.5 mg/kg body weight to about 100 or 200 mg/kg body weight. In certain embodiments, dosages range from about 0.5 to 1 mg/kg body weight to about 100 mg/kg body weight. In other embodiments doses range from about 10 to about 50 mg/kg body weight. Performance of studies to determine an optimal dosage for a particular condition using a particular compound is well within the level of ordinary skill in this field. […] For example, the ED50 of bicyclo,4-F-PCP for alleviation, treatment, or prevention of Alzheimer's and Parkinson's disease would be expected to be on the order of 3 mg/kg.
Compound 4 (Bicyclo,4-F-PCP) was tested in rats using 30 mg/kg delivered orally.

The nature of another data set: log P determination. The class given is physicochemical. The note with it: measure of lipophilicity.
A further data set can be described thus: pKa determination. It counts as physicochemical.
Data set [2] in a line: Aqueous solubility of fumarate salt. It counts as physicochemical. The following applies: read-out: solubility in aqueous solution.
Data set [3] concerns NMDA receptors (MK-801 binding site). Kind of data set: MK-801 (dizocilpine) binding site assay. The note with it: rat forebrain membrane, 20 mM HEPES pH 7.5, 25° C., 90 min; FIG. 3. Here is the method: NMDA receptors were isolated from rat forebrain membrane (Bmax=830 fmol/mg protein) and incubated with ^3H-labeled MK-801 maleate (15-30 Ci/mmol) in 20 mM HEPES (pH 7.5) buffer at 25° C. for 90 min to yield labeled receptors. MK-801 is a known non-competitive antagonist of NMDA receptor.
Selected concentrations of non-labeled bicyclo,4-F-PCP were incubated with the labeled receptors in 20 mM HEPES (pH 7.5) buffer at 25° C. for 90 min. At the conclusion of the assay, the reaction mixture was filtered immediately on glass filters by vacuum filtration and washed twice with buffer solutions. The radioactivity trapped on the filters was measured, compared with controls, and the ki and IC50 values of bicyclo,4-F-PCP were calculated.

Data set [4] relates to NMDA receptors (competitive site, CGP 39653). Nature of the data set: NMDA agonist binding site assay ([3H]CGP 39653). The following applies: rat forebrain membrane, 50 mM TRIS-acetate pH 7.4, 0-4° C., 60 min; FIG. 4. The procedure: NMDA receptors were isolated from rat forebrain membrane (Bmax=0.77 pmol/mg tissue) and incubated with ^3H-labeled CGP 39653 (15-30 Ci/mmol) in 50 mM TRIS-acetate (pH 7.4) buffer at 0-4° C. for 60 min to yield labeled receptors. CGP 39653 is a known competitive antagonist of NMDA receptor.
Selected concentrations of non-labeled bicyclo,4-F-PCP were incubated with the labeled receptors in 50 mM TRIS-Acetate (pH 7.4) buffer at 0-4° C. for 60 min. At the conclusion of the assay, the reaction mixture was immediately filtered using glass filters and vacuum filtration, washing twice with buffer solutions. The radioactivity trapped on the filters was measured, compared with controls, and the ki and IC50 values of bicyclo,4-F-PCP calculated.

Molecules are shown by their SMILES. Several values for one entry are separate records, joined by “and”; a condition that tells them apart may be missing. Equal entries are not always repeated.

With `NC1(c2ccc(F)cc2)CC2CCC1C2` (racemic) [Compound 2, (±)-2-(4-fluorophenyl)-bicyclo[2.2.1]hept-2-ylamine], in the data set with MES-induced seizures, the “Activity (MES test protection)” value is “+”. Besides, the Toxicity result in the data set on mice is listed as “++”.

As to `Fc1ccc(C2(N3CCCCC3)CC3CCC2C3)cc1` (racemic) [Compound 4, (±) 1-[2-(4-fluorophenyl)-bicyclo[2.2.1]hept-2-yl]-piperidine], the “Activity (MES test protection)” value with MES-induced seizures is “+”. Also, the Toxicity result in the data set on mice was “−”. In addition, the ED50 in data set [1] (Rattus norvegicus, po, read-out: ED50 (effective dose)) turned out to be 28.3 mg/kg. The “ED50 (effective dose)” value in data set [1] (listed as bicyclo,4-F-PCP) amounted to 28 mg/kg. The logP in “log P determination” was found to be 2.07. The compound also displayed a pKa in the data set “pKa determination” of 8.87. Besides, the solubility in data set [2] is 36600 µM and 14200 µg/mL. Also, the “displacement of [3H] MK-801 maleate bound to NMDA receptors” value in data set [3] was “can displace”. Further, the “displacement of CGP 39653 from NMDA receptors” value in data set [4] is listed as “does not displace”.

For the compound `NC1(c2ccccc2F)CCCCCC1` [cycloheptyl 2-F amine], the “Activity (MES test protection)” value in the data set on MES-induced seizures is given as “+”. Moreover, the Toxicity entry with mice is reported as “++”.

`Fc1ccc(C2(N3CCCCC3)CCCCCC2)cc1` [cycloheptyl 4-F piperidine]: the “Activity (MES test protection)” value in the data set on MES-induced seizures is “+”. Moreover, the Toxicity entry in the data set with mice was “+++”.
